This is an account of results in patent publication US20220289753A1, “SHP2 INHIBITORS” (IRBM S.P.A., priority 2019, published 2022).

As usually defined, the IC50 is the concentration needed to halve the response being measured. A lower IC50 goes with inhibition by little substance.

Molecules are shown by their SMILES.

The target in the test is T1, SHP-2 enzyme (Met1-Leu525) (Homo sapiens, UniProt Q06124).
T1 construct: synthetized by Origene, Met1-Leu525, cat #TP750155; purchased Origene TP750155
T1 sequence (Q06124 1-525): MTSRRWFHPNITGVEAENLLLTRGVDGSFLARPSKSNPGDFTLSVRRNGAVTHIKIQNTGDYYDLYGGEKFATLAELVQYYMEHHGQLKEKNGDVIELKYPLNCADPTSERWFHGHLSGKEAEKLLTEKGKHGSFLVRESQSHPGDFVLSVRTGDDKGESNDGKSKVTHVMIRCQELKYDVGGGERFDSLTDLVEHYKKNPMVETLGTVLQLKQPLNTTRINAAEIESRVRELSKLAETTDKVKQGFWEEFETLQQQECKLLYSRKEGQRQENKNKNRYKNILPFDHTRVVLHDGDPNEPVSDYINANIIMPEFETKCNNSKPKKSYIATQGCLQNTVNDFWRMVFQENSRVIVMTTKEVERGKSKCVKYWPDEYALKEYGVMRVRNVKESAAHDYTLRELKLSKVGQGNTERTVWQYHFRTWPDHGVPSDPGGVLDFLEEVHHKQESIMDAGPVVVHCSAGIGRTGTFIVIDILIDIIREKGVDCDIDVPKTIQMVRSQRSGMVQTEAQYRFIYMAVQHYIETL
Nature of the test: SHP2 inhibition enzymatic assay (DiFMUP substrate, IRS1 peptide activation). It counts as biochemical. To be noted: SHP2 wt; activated by 500 nM IRS1 peptide; 75 μM DiFMUP substrate. The protocol:
SHP2 Inhibition Enzymatic Assay
Assay volume of 20 μL/well was assembled in 384 well black polystyrene low-binding microplates (Greiner), using the following buffer: 60 mM HEPES pH 7.2, 75 mM NaCl, 75 mM KCl, 1 mM EDTA pH 8, 0.05% tween-20, 5 mM DTT. The SHP-2 enzyme (synthetized by Origene, Met1-Leu525, cat #TP750155) was used at a final concentration of 0.5 nM.
Briefly, DMSO serially diluted testing compounds were transferred to the bottom of the assay plate. SHP2 was then added together with the IRS1 peptide. 30 minutes post incubation, the DiFMUP substrate was added to the reaction and incubated 30 min at room temperature. […] The fluorescence was detected by a microplate reader (Envision, PerkinElmer) according to the DiFMUP excitation and emission wavelength. The lower the fluorescence the higher the SHP2 inhibition.
The percentage inhibition is fitted against the compound dilutions with a four-parameter logistic regression. The inflection point (i.e. the concentration at which half-maximal inhibition is achieved) is the IC50.

As for `CC1(N)CCN(c2nc3nc(Sc4ccccc4Cl)cnc3[nH]2)CC1` [Example 98, 1-(5-((2-chlorophenyl)thio)-1H-imidazo[4,5-b]pyrazin-2-yl)-4-methylpiperidin-4-amine], the IC50 was < 0.5 µM. For `CC1(N)CCN(c2nc3nc(Sc4cccc(C(=O)O)c4)cnc3[nH]2)CC1` [Example 94, 3-((2-(4-amino-4-methylpiperidin-1-yl)-1H-imidazo[4,5-b]pyrazin-5-yl)thio)benzoic acid] the value was < 0.5 µM; for `CCn1c(N2CCC(C)(N)CC2)nc2ncc(Sc3cccnc3C(F)(F)F)nc21` [Example 72, 1-(1-ethyl-6-((2-(trifluoromethyl)pyridin-3-yl)thio)-1H-imidazo[4,5-b]pyrazin-2-yl)-4-methylpiperidin-4-amine], > 3 µM; for `COc1ccc(Sc2cnc3[nH]c(N4CCC(C)(N)CC4)nc3n2)cc1` [Example 45, 1-(5-((4-methoxyphenyl)thio)-1H-imidazo[4,5-b]pyrazin-2-yl)-4-methylpiperidin-4-amine], 0.5 to 3 µM.

As for `N[C@@H]1c2ccccc2CC12CCN(c1nc3nc(Sc4ccnc5ccsc45)cnc3[nH]1)CC2` [Example 212, (S)-1′-(5-(thieno[3,2-b]pyridin-7-ylthio)-1H-imidazo[4,5-b]pyrazin-2-yl)-1,3-dihydrospiro[indene-2,4′-piperidin]-1-amine], the IC50 was < 0.5 µM.

`CC1(N)CCN(c2nc3ncc(Oc4cccc(Cl)c4Cl)nc3[nH]2)CC1` [Example 122, 1-(5-(2,3-dichlorophenoxy)-1H-imidazo[4,5-b]pyrazin-2-yl)-4-methylpiperidin-4-amine] yielded an IC50 of 0.5 to 3 µM. Take `FC(F)(F)c1ncccc1Sc1cnc2[nH]c(N3CCC4(CCN4)CC3)nc2n1` [Example 5, 2-(1,7-diazaspiro[3.5]nonan-7-yl)-5-((2-(trifluoromethyl)pyridin-3-yl)thio)-1H-imidazo[4,5-b]pyrazine]: the IC50 lay in the range of 0.5 to 3 µM. Next, `FC(F)(F)c1ncccc1Sc1cnc2[nH]c(N3CCCCC3)nc2n1` [Example 31, 2-(piperidin-1-yl)-5-((2-(trifluoromethyl)pyridin-3-yl)thio)-1H-imidazo[4,5-b]pyrazine]: 0.5 to 3 µM; `FC(F)(F)c1ncccc1Sc1cnc2[nH]c(Nc3ccc4n[nH]cc4c3)nc2n1` [Example 50, N-(2H-indazol-5-yl)-5-((2-(trifluoromethyl)pyridin-3-yl)thio)-1H-imidazo[4,5-b]pyrazin-2-amine]: 0.5 to 3 µM. Next, `CC1(N)CCN(c2nc3nc(Sc4cccnc4C(F)(F)F)cnc3s2)CC1` [Example 119, 4-methyl-1-(5-((2-(trifluoromethyl)pyridin-3-yl)thio)thiazolo[4,5-b]pyrazin-2-yl)piperidin-4-amine]: 0.5 to 3 µM.

Regarding `CC1(N)CCN(c2nc3nc(Sc4cccc(C5CC5)c4)cnc3[nH]2)CC1` [Example 46, 1-(5-((3-cyclopropylphenyl)thio)-1H-imidazo[4,5-b]pyrazin-2-yl)-4-methylpiperidin-4-amine], the IC50 lay within 0.5 to 3 µM. Regarding `OC1CCN(c2nc3nc(Sc4cccnc4C(F)(F)F)cnc3[nH]2)CC1` [Example 41, 1-(5-((2-(trifluoromethyl)pyridin-3-yl)thio)-1H-imidazo[4,5-b]pyrazin-2-yl)piperidin-4-ol], the IC50 was > 3 µM. Consider `CC1(N)CCN(c2nc3nc(Sc4cccnc4C(F)(F)F)cnc3n2CC2CC2)CC1` [Example 13, 1-(1-(cyclopropylmethyl)-5-((2-(trifluoromethyl)pyridin-3-yl)thio)-1H-imidazo[4,5-b]pyrazin-2-yl)-4-methylpiperidin-4-amine], for which the IC50 fell in the range of 0.5 to 3 µM. With `COc1ccccc1Sc1cnc2[nH]c(N3CCC(C)(N)CC3)nc2n1` [Example 24, 1-(5-((2-methoxyphenyl)thio)-1H-imidazo[4,5-b]pyrazin-2-yl)-4-methylpiperidin-4-amine], the concentration for half-maximal inhibition (IC50) is < 0.5 µM. Next, `FC(F)(F)c1ncccc1Sc1cnc2[nH]c(NCC3CCNCC3)nc2n1` [Example 110, N-(piperidin-4-ylmethyl)-5-((2-(trifluoromethyl)pyridin-3-yl)thio)-1H-imidazo[4,5-b]pyrazin-2-amine]: > 3 µM.

With `CC1(N)CCN(c2nc3nc(Sc4ccc(-c5nnc(-c6ccccc6)o5)cc4)cnc3[nH]2)CC1` [Example 59, 4-methyl-1-(5-((4-(5-phenyl-1,3,4-oxadiazol-2-yl)phenyl)thio)-1H-imidazo[4,5-b]pyrazin-2-yl)piperidin-4-amine], the half-inhibitory concentration (IC50) was in the range of 0.5 to 3 µM. In turn, `FC(F)(F)c1ncccc1Sc1cnc2[nH]c(N3C[C@@H]4CC[C@H]3CN4)nc2n1` [Example 90, (1S,4S)-2-(5-((2-(trifluoromethyl)pyridin-3-yl)thio)-1H-imidazo[4,5-b]pyrazin-2-yl)-2,5-diazabicyclo[2.2.2]octane] registered an IC50 of 0.5 to 3 µM. For `CC1(N)CCN(c2nc3nc(Sc4ccnc5c(C(F)(F)F)cccc45)cnc3[nH]2)CC1` [Example 97] the value was 0.5 to 3 µM; for `Cn1c(N2CCC(C)(N)CC2)nc2ncc(Sc3cccnc3C(F)(F)F)nc21` [Example 4, 4-methyl-1-(1-methyl-6-((2-(trifluoromethyl)pyridin-3-yl)thio)-1H-imidazo[4,5-b]pyrazin-2-yl)piperidin-4-amine], 0.5 to 3 µM; for `NCC1CN(c2nc3nc(Sc4cccnc4C(F)(F)F)cnc3[nH]2)C1` [Example 55, (1-(5-((2-(trifluoromethyl)pyridin-3-yl)thio)-1H-imidazo[4,5-b]pyrazin-2-yl)azetidin-3-yl)methanamine], 0.5 to 3 µM. For `NC1CCC2OC1CC2Nc1nc2nc(Sc3cccnc3C(F)(F)F)cnc2[nH]1` (stereo not drawn) [Example 109, N6-(5-((2-(trifluoromethyl)pyridin-3-yl)thio)-1H-imidazo[4,5-b]pyrazin-2-yl)-8-oxabicyclo[3.2.1]octane-2,6-diamine] the value was > 3 µM. For `Cc1cc(Sc2cnc3[nH]c(N4CCC(C)(N)CC4)nc3n2)c2ccccc2n1` [Example 106, 4-methyl-1-(5-((2-methylquinolin-4-yl)thio)-1H-imidazo[4,5-b]pyrazin-2-yl)piperidin-4-amine] the value was > 3 µM.

As for `FC(F)(F)c1ncccc1Sc1cnc2[nH]c(NCc3ccn[nH]3)nc2n1` [Example 32, N-((1H-pyrazol-5-yl)methyl)-5-((2-(trifluoromethyl)pyridin-3-yl)thio)-1H-imidazo[4,5-b]pyrazin-2-amine], the IC50 is > 3 µM. As to `N[C@@H]1CCCC12CCN(c1nc3ncc(N4CCCc5ncccc54)nc3[nH]1)CC2` [Example 120, (R)-8-(6-(3,4-dihydro-1,5-naphthyridin-1(2H)-yl)-1H-imidazo[4,5-b]pyrazin-2-yl)-8-azaspiro[4.5]decan-1-amine], the IC50 is > 3 µM. For `COCCn1c(N2CCC(C)(N)CC2)nc2nc(Sc3cccnc3C(F)(F)F)cnc21` [Example 129, 1-(1-(2-methoxyethyl)-5-((2-(trifluoromethyl)pyridin-3-yl)thio)-1H-imidazo[4,5-b]pyrazin-2-yl)-4-methylpiperidin-4-amine] the value was 0.5 to 3 µM. For `Nc1cnccc1Sc1cnc2[nH]c(N3CCC4(CC3)Cc3ccccc3[C@H]4N)nc2n1` [Example 210, (S)-1′-(5-((3-aminopyridin-4-yl)thio)-1H-imidazo[4,5-b]pyrazin-2-yl)-1,3-dihydrospiro[indene-2,4′-piperidin]-1-amine] the value was < 0.5 µM.

As for `CN(C)c1ncccc1Sc1cnc2[nH]c(N3CCC4(CC3)Cc3ccccc3[C@H]4N)nc2n1` [Example 211, (S)-1′-(5-((2-(dimethylamino)pyridin-3-yl)thio)-1H-imidazo[4,5-b]pyrazin-2-yl)-1,3-dihydrospiro[indene-2,4′-piperidin]-1-amine], the concentration for half-maximal inhibition (IC50) was < 0.5 µM. Take `Cc1cc(Cl)ccc1Sc1cnc2[nH]c(N3CCC(C)(N)CC3)nc2n1` [Example 38, 1-(5-((4-chloro-2-methylphenyl)thio)-1H-imidazo[4,5-b]pyrazin-2-yl)-4-methylpiperidin-4-amine]: the IC50 is < 0.5 µM. For `FC(F)(F)c1ncccc1Sc1cnc2[nH]c(NCCCN3CCOCC3)nc2n1` [Example 123, N-(3-morpholinopropyl)-5-((2-(trifluoromethyl)pyridin-3-yl)thio)-1H-imidazo[4,5-b]pyrazin-2-amine] the value was > 3 µM; for `CS(=O)(=O)NC1CCN(c2nc3nc(Sc4cccnc4C(F)(F)F)cnc3[nH]2)CC1` [Example 40, N-(1-(5-((2-(trifluoromethyl)pyridin-3-yl)thio)-1H-imidazo[4,5-b]pyrazin-2-yl)piperidin-4-yl)methanesulfonamide], > 3 µM.
